Values of other authors as cited in patent US20050042289A1, “Tablets and methods for modified release of hydrophylic and other active agents” (Yamanouchi Pharma Technologies, Inc., priority 2003, published 2005).
Structures can show the parent of a compound that is named as a salt. Where two headings read alike, the source gives them in different places.

Settings: in water at 25° C., hemihydrate

CC1OC2(CS1)CN1CCC2CC1 (racemic) [SNI-2011, (+/−)-cis-2-methylspiro [1,3-oxathiolane-5,3′-quinuclidine] hydrochloride, hemihydrate]
water solubility (listed as Cevimeline hydrochloride): 766 mg/mL
water solubility (listed as methylspiro hydrochloride salt): ~800 mg/mL
water solubility (hydrochloride): about 1,400 mg/ml
